{"source": "patent US12723261B2", "about": "“Process for producing a plurality of Neddylation site modified AAV2 vectors” (INDIAN INSTITUTE OF […], priority 2018, dated 2026)", "tested_on": "HeLa cells", "test": "In vitro drug assay: scAAV2-EGFP transduction after pre-treatment with Neddylation inhibitor", "type": "cell-based", "conditions": "versus control cells", "method": "Approximately 3×10^4 HeLa cells were seeded in 24 well plate and incubated for 12 hours in Iscove's-modified Dulbecco's medium (IMDM) with 10% fetal bovine serum in humidified conditions and 5% CO2. Cells were either mock treated or treated with a Neddylation inhibitor, MLN4924 (Calbiochem, Merck, Kenilworth, USA) at a concentration of 1 μM and incubated at 37° C. for 3 hours. After incubation, cells were infected with scAAV2-EGFP vectors at a multiplicity of infection (MOI) of 5000 for 3 hours in IMDM at 37° C. Forty-eight hours later, the transgene (GFP) expression was quantified by flow cytometry (BDaccuri, BD Biosciences, Franklin Lakes, USA).\nTo determine the role of cellular Neddylation during AAV2 infection, a small molecular inhibitor of Neddylation being used herein, MLN4924. The MLN4924 prevents the formation of the NEDD8 and Neddylation activating enzyme (NAE1) protein complex. The HeLa cells were pre-treated for three hours, after which the HeLa cells were infected with scAAV2-EGFP. […] Further studies such as specific targeting of Neddylation pathway genes by RNA interference are warranted to understand the mechanism involved in this process. […] Forty-eight hours later, the transgene (GFP) expression was quantified by flow cytometry. […]"}
{"smiles": "NS(=O)(=O)OC[C@@H]1C[C@@H](n2ccc3c(N[C@H]4CCc5ccccc54)ncnc32)C[C@@H]1O", "note": "[MLN4924]", "values": [{"measurement": "improvement of AAV transduction by Neddylation inhibition", "value": 50, "unit": "%"}]}
